Here are results for 28 molecules from patent publication US20230082430A1 (C4 Therapeutics, Inc., priority 2019, published 2023).

Structures are written as SMILES.

One test deals with NCIH929.1 cells. The test can be described thus: Cell viability assay for Table 2 (CellTiter-Glo 2.0, ATP quantification, 96 hr). Format: cell-based. Particulars: 96 h, NCIH929.1 cell viability, 96 hr, top concentration 1 μM, 14 points half log titration; read-out: IC50. The source says:
Cell Viability Assay for Table 2
CellTiter-Glo® 2.0 Assay was purchased from Promega (Madison, Wis., USA). NCIH929.1 cell line was purchased from ATCC (Manassas, Va., USA). Cell culture flasks and 384-well microplates were acquired from VWR (Radnor, Pa., USA).
In general terms: ATP-based viability assays read luminescence as a measure of living cells.
As a reminder, the IC50 is the concentration that inhibits the measured activity by half. Regarding `O=C1CCC(N2C(=O)c3cccc4c(Cc5ccc(CN6CCc7ccccc7C6)cc5)ccc2c34)C(=O)N1` (stereo not shown) [Compound 155, 3-[6-[[4-(3,4-dihydro-1H-isoquinolin-2-ylmethyl)phenyl]methyl]-2-oxo-benzo[cd]indol-1-yl]piperidine-2,6-dione], the IC50 is below 1 nM. Take `NCC1(n2cc(Cc3ccc4c5c(cccc35)C(=O)N4C3CCC(=O)NC3=O)cn2)CCN(C(=O)C2(C(F)(F)F)CC2)CC1` (stereo not shown) [Compound 194, 3-[6-[[1-[4-(aminomethyl)-1-[1-(trifluoromethyl)cyclopropanecarbonyl]-4-piperidyl]pyrazol-4-yl]methyl]-2-oxo-benzo[cd]indol-1-yl]piperidine-2,6-dione]: the IC50 is below 100 nM.

Turning to `O=C1CC[C@H](N2C(=O)c3cccc4c(Cc5ccc(CN6CCOCC6)cc5)ccc2c34)C(=O)N1` (single isomer, unassigned) [Compound 219, 3-(6-(4-(morpholinomethyl)benzyl)-2-oxobenzo[cd]indol-1(2H)-yl)piperidine-2,6-dione], the IC50 is below 1 nM. Regarding `CN(c1ccc(Cc2ccc3c4c(cccc24)C(=O)N3C2CCC(=O)NC2=O)cc1)C1CCN(c2ccc(C#N)cc2F)CC1` (stereo not shown) [Compound 165, 4-[4-[4-[[1-(2,6-dioxo-3-piperidyl)-2-oxo-benzo[cd]indol-6-yl]methyl]-N-methyl-anilino]-1-piperidyl]-3-fluoro-benzonitrile], the IC50 is below 1 nM.

As to `COC1(CN2CCC(n3cc(Cc4ccc5c6c(cccc46)C(=O)N5C4CCC(=O)NC4=O)cn3)CC2)CCC1` (stereo not shown) [Compound 56, 3-(6-((1-(1-((1-methoxycyclobutyl)methyl)piperidin-4-yl)-1H-pyrazol-4-yl)methyl)-2-oxobenzo[cd]indol-1(2H)-yl)piperidine-2,6-dione], the IC50 was below 1 nM.

On to `CN1CCN(Cc2ccc(Cc3ccc4c5c(cccc35)C(=O)N4C3CCC(=O)NC3=O)cc2)CC1=O` (stereo not shown) [Compound 116, 3-(6-(4-((4-mcthyl-3-oxopiperazin-1-yl)methyl)benzyl)-2-oxobenzo[cd]indol-1(2H)-yl)piperidme-2,6-dione], for which the half-inhibitory concentration (IC50) was below 1 nM. Consider `COC(=O)c1ccc2c3c(cccc13)C(=O)N2C1CCC(=O)NC1=O` (stereo not shown) [Compound 124, methyl 1-(2,6-dioxo-3-piperidyl)-2-oxo-benzo[cd]indole-6-carboxylate], for which the IC50 is above 999 nM.

Consider `CC1(n2cc(Cc3ccc4c5c(cccc35)C(=O)N4C3CCC(=O)NC3=O)cn2)CCN(C(=O)C23CCCC(C2)C3)CC1` (stereo not shown) [Compound 89, 3-(6-((1-(1-(bicyclo[3.1.1]heptane-1-carbonyl)-4-methylpiperidin-4-yl)-1H-pyrazol-4-yl)methyl)-2-oxobenzo[cd]indol-1(2H)-yl)piperidine-2,6-dione], for which the IC50 was below 1 nM. As to `CC1(n2cc(Cc3ccc4c5c(cccc35)C(=O)N4C3CCC(=O)NC3=O)cn2)CCCCC1` (stereo not shown) [Compound 198, 3-[6-[[1-(1-methylcyclohexyl)pyrazol-4-yl]methyl]-2-oxo-benzo[cd]indol-1-yl]piperidine-2,6-dione], the IC50 is below 1 nM.

Consider `CC1(n2cc(Cc3ccc4c5c(cccc35)C(=O)N4C3CCC(=O)NC3=O)cn2)CCN(C(=O)C2(C(F)(F)F)CC2)CC1` (stereo not shown) [Compound 77, 3-(6-((1-(4-methyl-1-(1-(trifluoromethyl)cyclopropane-1-carbonyl)piperidin-4-yl)-1H-pyrazol-4-yl)methyl)-2-oxobenzo[cd]indol-1(2H)-yl)piperidine-2,6-dione], for which the IC50 is below 1 nM. Still for that read-out and setting: as for `O=C1CCC(N2C(=O)c3cccc4c(Cc5cnn(C6CCN(CC7(F)CCC7)CC6)c5)ccc2c34)C(=O)N1` (stereo not shown) [Compound 59, 3-(6-((1-(1-((1-fluorocyclobutyl)methyl)piperidin-4-yl)-1H-pyrazol-4-yl)methyl)-2-oxobenzo[cd]indol-1(2H)-yl)piperidine-2,6-dione], the figure is below 1 nM; as for `O=C1CCC(N2C(=O)c3cccc4c(Cc5cnn(C6CCN([C@H]7CCC8(CCC8)C7)CC6)c5)ccc2c34)C(=O)N1` (stereo partly shown) [Compound 242], below 1 nM; as for `CC1(n2cc(Cc3ccc4c5c(cccc35)C(=O)N4C3CCC(=O)NC3=O)cn2)CCN(c2ncccc2F)CC1` (stereo not shown) [Compound 126, 3-[6-[[1-[1-(3-fluoro-2-pyridyl)-4-methyl-4-piperidyl]pyrazol-4-yl]methyl]-2-oxo-benzo[cd]indol-1-yl]piperidine-2,6-dione], below 1 nM. On the same count and under the same terms, the figure for `CC(C)(C)OC(=O)N1CCC(n2cc(C(N)c3ccc4c5c(cccc35)C(=O)N4C3CCC(=O)NC3=O)cn2)CC1` (stereo not shown) [Compound 154, tert-butyl 4-(4-(amino(1-(2,6-dioxopiperidin-3-yl)-2-oxo-1,2-dihydrobenzo[cd]indol-6-yl)methyl)-1H-pyrazol-1-yl)piperidine-1-carboxylate] is below 1 nM. Still for that read-out and setting: the figure for `CC(C1CCC1)N1CCC(n2cc(Cc3ccc4c5c(cccc35)C(=O)N4C3CCC(=O)NC3=O)cn2)CC1` (single isomer, unassigned) [Compound 280, 3-[6-[[1-[1-[1-cyclobutylethyl]-4-piperidyl]pyrazol-4-yl]methyl]-2-oxo-benzo[cd]indol-1-yl]piperidine-2,6-dione] is below 1 nM; for `CC1(n2cc(Cc3ccc4c5c(cccc35)C(=O)N4C3CCC(=O)NC3=O)cn2)CCN(C(=O)C23CC(C2)C3)CC1` (stereo not shown) [Compound 91, 3-(6-((1-(1-(bicyclo[1.1.1]pentane-1-carbonyl)-4-methylpiperidin-4-yl)-1H-pyrazol-4-yl)methyl)-2-oxobenzo[cd]indol-1(2H)-yl)piperidinc-2,6-dione] it is below 1 nM. `O=C1CCC(N2C(=O)c3cccc4c(Cc5ccc(CN6CCOCC6=O)cc5)ccc2c34)C(=O)N1` (stereo not shown) [Compound 197, 3-[2-oxo-6-[[4-[(3-oxomorpholin-4-yl)methyl]phenyl]methyl]benzo[cd]indol-1-yl]piperidine-2,6-dione]: the IC50 was below 1 nM. The same measure, in the same setting: the figure for `N#Cc1ccc(N2CCN(Cc3ccc(Cc4ccc5c6c(cccc46)C(=O)N5C4CCC(=O)NC4=O)cc3)CC2)c(F)c1` (single isomer, unassigned) [Compound 184, 4-(4-(4-((1-(2,6-dioxopiperidin-3-yl)-2-oxo-1,2-dihydrobenzo[cd]indol-6-yl)methyl)benzyl)piperazin-1-yl)-3-fluorobenzonitrile] is below 1 nM; for `COC1(CN2CCC(C)(n3cc(Cc4ccc5c6c(cccc46)C(=O)N5C4CCC(=O)NC4=O)cn3)CC2)CCC1` (stereo not shown) [Compound 103, 3-(6-((1-(1-((1-methoxycyclobutyl)methyl)-4-methylpiperidin-4-yl)-1H-pyrazol-4-yl)methyl)-2-oxobenzo[cd]indol-1(2H)-yl)piperidine-2,6-dione] it is below 1 nM. On the same count and under the same terms, as for `O=C1CCC(N2C(=O)c3cccc4c(Cc5cnn(C6CCN(C(=O)c7ccncc7)CC6)c5)ccc2c34)C(=O)N1` (stereo not shown) [Compound 42, 3-(6-((1-(1-isonicotinoylpiperidin-4-yl)-1H-pyrazol-4-yl)methyl)-2-oxobenzo[cd]indol-1(2H)-yl)piperidine-2,6-dione], the figure is below 1 nM.

`CC1(n2cc(Cc3ccc4c5c(cccc35)C(=O)N4C3CCC(=O)NC3=O)cn2)CCN(C(=O)C23C4C5C6C4C2C6C53)CC1` (stereo not drawn) [Compound 70, 3-(6-((1-(l-(cubane-1-carbonyl)-4-methylpiperidin-4-yl)-1H-pyrazol-4-yl)methyl)-2-oxobenzo[cd]indol-1(2H)-yl)piperidine-2,6-dione]: the IC50 was below 1 nM. With `CC(C)(C)C[C@H]1CC[C@H](n2cc(Cc3ccc4c5c(cccc35)C(=O)N4C3CCC(=O)NC3=O)cn2)CC1` (stereo partly shown) [Compound 260, 3-(6-((1-((1s,4s)-4-neopentylcyclohexyl)-1H-pyrazol-4-yl)methyl)-2-oxobenzo[cd]indol-1(2H)-yl)piperidine-2,6-dione], the IC50 was below 1 nM. Same read-out and setting: as for `N#Cc1ccc2c3c(cccc13)C(=O)N2C1CCC(=O)NC1=O` (stereo not shown) [Compound 145, 1-(2,6-dioxopiperidin-3-yl)-2-oxo-1,2-dihydrobenzo[cd]indole-6-carbonitrile], the figure is above 999 nM. Still for that read-out and setting: the figure for `CC1(C(=O)N2CCN(c3ccc(Cc4ccc5c6c(cccc46)C(=O)N5C4CCC(=O)NC4=O)cc3)CC2)CCC1` (stereo not shown) [Compound 167, 3-[6-[[4-[4-(1-methylcyclobutanecarbonyl)piperazin-1-yl]phenyl]methyl]-2-oxo-benzo[cd]indol-1-yl]piperidine-2,6-dione] is below 1 nM; for `CC1(n2cc(Cc3ccc4c5c(cccc35)C(=O)N4C3CCC(=O)NC3=O)cn2)CCN(C(=O)C2(C(F)(F)F)CCC2)CC1` (stereo not shown) [Compound 78, 3-(6-((1-(4-methyl-1-(1-(trifluoromethyl)cyclobutane-1-carbonyl)piperidin-4-yl)-1H-pyrazol-4-yl)methyl)-2-oxobenzo[cd]indol-1(2H)-yl)piperidine-2,6-dione] it is below 1 nM.

With `CC1(C(=O)N2CCC(n3cc(Cc4ccc5c6c(cccc46)C(=O)N5C4CCC(=O)NC4=O)cn3)CC2)CCC1` (stereo not shown) [Compound 53, 3-(6-((1-(1-(1-methylcyclobutane-1-carbonyl)piperidin-4-yl)-1H-pyrazol-4-yl)methyl)-2-oxobenzo[cd]indol-1(2H)-yl)piperidine-2,6-dione], the IC50 was below 1 nM. Consider `O=C1CCC(N2C(=O)c3cccc4c(Cc5cnn(C6CCN(C(=O)c7cccnc7)CC6)c5)ccc2c34)C(=O)N1` (stereo not shown) [Compound 43, 3-(6-((1-(1-nicotinoylpiperidin-4-yl)-1H-pyrazol-4-yl)methyl)-2-oxobenzo[cd]indol-1(2H)-yl)piperidine-2,6-dione], for which the half-inhibitory concentration (IC50) is below 1 nM.

Still in this test, the particulars now being: NCIH929.1 cell viability, 96 hr, top concentration 1 μM, 14 points half log titration; read-out: IC50.
`O=C1CCC(N2C(=O)c3cccc4c(Cc5ccc(CN6CCN(c7ccccc7F)CC6)cc5)ccc2c34)C(=O)N1` (single isomer, unassigned) [Compound 189, 3-[6-[[4-[[4-(2-fluorophenyl)piperazin-1-yl]methyl]phenyl]methyl]-2-oxo-benzo[cd]indol-1-yl]piperidine-2,6-dione]: the IC50 was below 1 nM.
